Molecular target: T1, Epidermal Growth Factor Receptor (EGFR) (Homo sapiens, UniProt P00533)
T1 construct: purchased Sigma-Aldrich E3641
Experiment: EGFR kinase assay (TR-FRET)
Type: biochemical
Conditions: 10 μM ATP; read-out: EGFR kinase inhibition IC50
Text: EGFR inhibitory activity of compounds of the present invention was quantified employing the TR-FRET based EGFR assay as described in the following paragraphs.
Epidermal Growth Factor Receptor (EGFR) affinity purified from human carcinoma A431 cells (Sigma-Aldrich, # E3641) was used as kinase. As substrate for the kinase reaction the biotinylated peptide biotin-Ahx-[…] (SEQ ID NO: 8, C-terminus in amid form) was used which can be purchased e.g. form the company Biosyntan GmbH (Berlin-Buch, Germany).
For the assay 50 nL of a 100 fold concentrated solution of the test compound in DMSO was pipetted into a black low volume 384 well microtiter plate (Greiner Bio-One, Frickenhausen, Germany), 2 μL of a solution of EGFR in aqueous assay buffer [50 mM Hepes/HCl pH 7.0, 1 mM MgCl2, 5 mM MnCl2, 0.5 mM activated sodium ortho-vanadate, 0.005% (v/v) Tween-20]were added and the mixture was incubated for […] at 22° C. to allow pre-binding of the test compounds to the enzyme before the start of the kinase reaction. Then the kinase reaction was started by the addition of 3 μL of a solution of adenosine-tri-phosphate (ATP, 16.7 μM=>final conc. in the 5 μL assay volume is 10 μM) and substrate (1.67 μM =>final conc. in the 5 μL assay volume is 1μM) in assay buffer and the resulting mixture was incubated for a reaction time of […] at 22° C. The concentration of EGFR was adjusted depending of the activity of the enzyme lot and was chosen appropriate to have the assay in the linear range, typical concentration were about 3 U/ml. The reaction was stopped by the addition of 5 μl of a solution of HTRF detection reagents (0.1 μM streptavidine-XL665 [Cis Biointernational]and 1 nM PT66-Tb-Cryptate, an terbium-cryptate labelled anti-phospho-tyrosine antibody from Cis Biointernational [instead of the PT66-Tb-cryptate PT66-Eu-Chelate from Perkin Elmer can also be used]) in an aqueous EDTA-solution (80 mM EDTA, 0.2% (w/v) bovine serum albumin in 50 mM HEPES pH 7.5).
The resulting mixture was incubated 1 h at 22° C. to allow the binding of the biotinylated phosphorylated peptide to the streptavidine-XL665 and the PT66-Eu-Chelate. Subsequently the amount of phosphorylated substrate was evaluated by measurement of the resonance energy transfer from the PT66-Tb-Cryptate to the streptavidine-XL665. Therefore, the fluorescence emissions at 620 nm and 665 nm after excitation at 337 nm were measured in a HTRF reader, e.g. a Pherastar (BMG Labtechnologies, Offenburg, Germany) or a Viewlux (Perkin-Elmer). The ratio of the emissions at 665 nm and at […] was taken as the measure for the amount of phosphorylated substrate.

T1 sequence (P00533 25-1210): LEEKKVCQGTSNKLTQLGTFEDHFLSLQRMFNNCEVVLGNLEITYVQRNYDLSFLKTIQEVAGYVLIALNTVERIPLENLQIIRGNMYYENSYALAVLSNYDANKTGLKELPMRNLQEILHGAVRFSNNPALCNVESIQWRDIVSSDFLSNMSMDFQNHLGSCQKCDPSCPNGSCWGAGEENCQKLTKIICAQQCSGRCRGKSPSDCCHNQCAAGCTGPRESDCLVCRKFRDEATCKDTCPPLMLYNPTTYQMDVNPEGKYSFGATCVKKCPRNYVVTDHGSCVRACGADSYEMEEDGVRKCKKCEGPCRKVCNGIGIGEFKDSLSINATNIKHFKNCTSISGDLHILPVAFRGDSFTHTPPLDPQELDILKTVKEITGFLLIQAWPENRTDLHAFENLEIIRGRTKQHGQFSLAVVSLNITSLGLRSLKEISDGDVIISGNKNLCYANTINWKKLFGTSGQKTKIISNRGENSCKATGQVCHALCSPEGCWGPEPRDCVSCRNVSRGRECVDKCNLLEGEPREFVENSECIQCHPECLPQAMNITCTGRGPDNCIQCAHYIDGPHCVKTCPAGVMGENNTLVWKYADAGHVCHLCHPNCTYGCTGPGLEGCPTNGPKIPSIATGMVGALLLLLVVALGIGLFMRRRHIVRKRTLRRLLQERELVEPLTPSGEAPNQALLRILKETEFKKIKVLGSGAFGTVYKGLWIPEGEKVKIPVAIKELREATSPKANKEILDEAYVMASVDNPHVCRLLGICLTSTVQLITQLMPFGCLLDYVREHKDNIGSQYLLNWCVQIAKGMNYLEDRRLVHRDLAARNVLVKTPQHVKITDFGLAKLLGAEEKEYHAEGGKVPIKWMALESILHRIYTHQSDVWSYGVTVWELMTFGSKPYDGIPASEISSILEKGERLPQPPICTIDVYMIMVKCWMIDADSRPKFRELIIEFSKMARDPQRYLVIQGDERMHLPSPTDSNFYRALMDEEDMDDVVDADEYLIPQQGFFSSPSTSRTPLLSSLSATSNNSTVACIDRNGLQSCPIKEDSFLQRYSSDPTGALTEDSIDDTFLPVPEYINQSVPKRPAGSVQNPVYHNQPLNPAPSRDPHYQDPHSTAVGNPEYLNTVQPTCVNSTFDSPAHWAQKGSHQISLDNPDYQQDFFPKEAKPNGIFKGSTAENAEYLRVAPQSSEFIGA

Row | Structure (SMILES) | IC50 [µM]
1 | CC(=O)N[C@@H]1CCN(c2cc3c(NC(C)c4ccc(-c5ccccc5CN(C)C)s4)nc(C)nc3cn2)C1 (single isomer, unassigned) [Example 79] | > 20
2 | CC(=O)N[C@@H]1CCN(c2cc3c(NC(C)c4ccc(-c5ccccc5CN(C)C)s4)nc(C)nc3cn2)C1 (single isomer, unassigned) [Example 80] | > 20
3 | CC(=O)N[C@H]1CCN(c2cc3c(NC(C)c4ccc(-c5ccccc5CN(C)C)s4)nc(C)nc3cn2)C1 (single isomer, unassigned) [Example 81] | > 20
4 | CC(=O)N[C@H]1CCN(c2cc3c(NC(C)c4ccc(-c5ccccc5CN(C)C)s4)nc(C)nc3cn2)C1 (single isomer, unassigned) [Example 82] | > 20
